How the values were obtained:
[1] = assay type: physicochemical
Protocol: In addition to examination of solutions for clarity, aged samples (2 months@ 25° C.) were examined chromatographically for degradation.
In order to elucidate possible degradation components, solutions of active components were subjected to forced degradation conditions of acid, base, and peroxide at elevated temperature.
Samples containing ivermectin and clorsulon were prepared in acetonitrile and subjected to acid (a few drops of phosphoric acid), alkaline (a few drops of 1N sodium hydroxide) and peroxide (a small amount of t-butyl peroxide or hydrogen peroxide) degradation conditions. Samples were first analyzed for signs of degradation after a few days at ambient temperature. If, after this time there were no signs of degradation the samples were further ‘stressed’ by storage at 40° C.

[2] = Preliminary stability of Table 3 formulations at 50° C.; assay type: physicochemical; settings: addition of glycerol formal
Protocol: Larger batches (100 mL) of formulations were made for use in preliminary stability studies.
Eprinomectin was also included in the formulation studies at the same end product concentration as ivermectin (0.5% w/v). The formulations shown in Table 3 were monitored for stability.
In order to evaluate the stability of formulations, analytical methods (described below) were developed to assay each active ingredient and monitor any degradation.
This HPLC assay was developed as an external standardization method which involves volumetric dilution of an accurately weighed amount of standard material and sample. The chromatographic method comprises an isocratic elution and detection of analyte components using the run parameters below: […]

Row | Molecule | Relative stability of the two active compounds [1] | Stabilization of eprinomectin in formulation [2]
1 | Nc1cc(C(Cl)=C(Cl)Cl)c(S(N)(=O)=O)cc1S(N)(=O)=O [clorsulon, 4-amino-6-trichloroethenyl-1,3-benzene disulfonamide] | more stable | 
2 | eprinomectin |  | stabilized by the addition of glycerol formal

Reference: patent US8097266B2, “Solvent systems for pour-on formulations for combating parasites” (Merial Limited, priority 2007, dated 2012)
